Tests used:
[1] = test system: Healthy subjects, ages 13-18; test: Trail Making Test; format: in vivo, human; set-up: Trail Making B V1 (Mean) / Trail Making B V3 (Mean) / Trail Making B-A V1 (Mean) / Trail Making B-A V3 (Mean) / V3-V1 Trail Making B (Mean) / V3-V1 Trail Making B-A (Mean): unit not given here; details: for Trail Making A V1 (Mean) / Trail Making B V1 (Mean) / Trail Making B-A V1 (Mean): Visit 1; for Trail Making A V3 (Mean) / Trail Making B V3 (Mean) / Trail Making B-A V3 (Mean): Visit 3; for V3-V1 Trail Making A (Mean) / V3-V1 Trail Making B (Mean) / V3-V1 Trail Making B-A (Mean): visit difference score V3-V1
Source text: Study participants were screened by telephone prior to study enrollment. Healthy subjects, ages 13-18, with no significant medical conditions and no history of co-morbid psychiatric disorder, current Axis I or II diagnosis, or previous participation in a pharmacotherapeutic trial, were selected. Use of any psychotropic medication or any previous head injury resulting in loss of consciousness for 5 or more minutes were used as exclusion criteria. While no participant met criteria for a neuropsychiatric disorder at enrollment, clinical assessments were still completed throughout the study to evaluate changes in mood state. In addition, self-reports of sleep habits, lifestyle, and exercise routines were also administered at baseline as well as at each study visit to assess changes in health habits during study participation.
Following the completion of Visit 1 assessment, participants were given their 28-day supply of citicoline (250 mg or 500 mg) or placebo, which was randomly assigned. They were instructed to take one capsule a day every day for the next 28 days.
Visit 2 occurred fourteen days after Visit 1. At Visit 2, the remaining study pills were counted and participant dosage calendars were checked to ensure compliance with the protocol. Additional neuropsychological measures and clinical assessments were administered during this visit.
Participants returned for Visit 3 fourteen days later, on the 28th day of their study participation. The pill bottle and the dosage calendar were collected from each participant. Urine and blood were again obtained. Participants also participated in similar clinical and neuropsychological testing and clinical measures that were given during visit 1.
The Trail Making Test is designed to measure visual conceptual and visuomotor tracking, as well as maintenance of cognitive set. On Trial A the participant must draw lines to connect consecutively numbered circles on one work sheet (1-2-3-4 etc.). For Part B they must connect numbered and lettered circles by alternating between the two sequences (i.e., 1-A-2-B etc.). Part B is the more sensitive of the two tests -- particularly to frontal-lobe dysfunction -- as scores on this section are indicative of the participant’s ability to shift sets (numeric to alphabetical order) and process concurrent stimuli. This test was administered on all three visits.

[2] = test system: Healthy subjects, ages 13-18; test: Ruff 2 & 7 test (visual attention); format: in vivo, human; details: for Ruff 2 & 7 Accuracy Difference Score V1 (Mean) / Ruff 2 & 7 Speed Difference Score V1 (Mean) / Ruff 2 & 7 Total Accuracy T Score V1 (Mean) / Ruff 2 & 7 Total Difference Score V1 (Mean) / Ruff 2 & 7 Total Speed T Score V1 (Mean): Visit 1; for Ruff 2 & 7 Accuracy Difference Score V3 (Mean) / Ruff 2 & 7 Speed Difference Score V3 (Mean) / Ruff 2 & 7 Total Accuracy T Score V3 (Mean) / Ruff 2 & 7 Total Difference Score V3 (Mean) / Ruff 2 & 7 Total Speed T Score V3 (Mean): Visit 3
Source text: Study participants were screened by telephone prior to study enrollment. Healthy subjects, ages 13-18, with no significant medical conditions and no history of co-morbid psychiatric disorder, current Axis I or II diagnosis, or previous participation in a pharmacotherapeutic trial, were selected. Use of any psychotropic medication or any previous head injury resulting in loss of consciousness for 5 or more minutes were used as exclusion criteria. While no participant met criteria for a neuropsychiatric disorder at enrollment, clinical assessments were still completed throughout the study to evaluate changes in mood state. In addition, self-reports of sleep habits, lifestyle, and exercise routines were also administered at baseline as well as at each study visit to assess changes in health habits during study participation. Following the completion of Visit 1 assessment, participants were given their 28-day supply of citicoline (250 mg or 500 mg) or placebo, which was randomly assigned. They were instructed to take one capsule a day every day for the next 28 days. Visit 2 occurred fourteen days after Visit 1. At Visit 2, the remaining study pills were counted and participant dosage calendars were checked to ensure compliance with the protocol. Additional neuropsychological measures and clinical assessments were administered during this visit. Participants returned for Visit 3 fourteen days later, on the 28th day of their study participation. The pill bottle and the dosage calendar were collected from each participant. Urine and blood were again obtained. Participants also participated in similar clinical and neuropsychological testing and clinical measures that were given during visit 1. The Ruff 2 & 7 measures two aspects of visual attention: sustained attention and selective attention. There are a series of 20 trials involving visual searching in which the respondent detects and marks through all given stimuli the digits “2” and “7”. In the 10 Automatic Detection trials, the target digits are embedded among alphabetical letters that serve as distractors. In the 10 Controlled Search trials, the target digits are embedded among other numbers that serve as distractors. Correct hits and errors are counted for each trial and serve as the basis for scoring the test. Accuracy scores evaluate the number of targets identified in relation to the number of possible targets. The Ruff 2 & 7 was administered at all three visits.

[3] = 250 mg/day group, visit difference score V3-V1
[4] = 500 mg/day group, visit difference score V3-V1

C[N+](C)(C)CCOP(=O)(O)OP(=O)([O-])OC[C@H]1O[C@@H](n2ccc(N)nc2=O)[C@H](O)[C@@H]1O [citicoline, Cytidine 5′-diphosphocholine]
Trail Making A V1 (Mean) ([1]; 250 mg/day group): 11.16
Trail Making B V1 (Mean) ([1]; 250 mg/day group): 29.15
Trail Making B-A V1 (Mean) ([1]; 250 mg/day group): 17.99
Trail Making A V3 (Mean) ([1]; 250 mg/day group): 9.37
Trail Making B V3 (Mean) ([1]; 250 mg/day group): 18.40
Trail Making B-A V3 (Mean) ([1]; 250 mg/day group): 9.00
V3-V1 Trail Making A (Mean) ([1]; 250 mg/day group): -1.80
V3-V1 Trail Making B (Mean) ([1]; 250 mg/day group): -10.75
V3-V1 Trail Making B-A (Mean) ([1]; 250 mg/day group): -8.99
Trail Making A V1 (Mean) ([1]; 500 mg/day group): 12.89
Trail Making B V1 (Mean) ([1]; 500 mg/day group): 28.60
Trail Making B-A V1 (Mean) ([1]; 500 mg/day group): 15.71
Trail Making A V3 (Mean) ([1]; 500 mg/day group): 9.28
Trail Making B V3 (Mean) ([1]; 500 mg/day group): 23.02
Trail Making B-A V3 (Mean) ([1]; 500 mg/day group): 13.73
V3-V1 Trail Making A (Mean) ([1]; 500 mg/day group): -3.60
V3-V1 Trail Making B (Mean) ([1]; 500 mg/day group): -5.58
V3-V1 Trail Making B-A (Mean) ([1]; 500 mg/day group): -1.98
Ruff 2 & 7 Accuracy Difference Score V1 (Mean) ([2]; 250 mg/day group): 0.02
Ruff 2 & 7 Speed Difference Score V1 (Mean) ([2]; 250 mg/day group): 0.01
Ruff 2 & 7 Total Accuracy T Score V1 (Mean) ([2]; 250 mg/day group): 47.41
Ruff 2 & 7 Total Difference Score V1 (Mean) ([2]; 250 mg/day group): 0.01
Ruff 2 & 7 Total Speed T Score V1 (Mean) ([2]; 250 mg/day group): 45.74
Ruff 2 & 7 Accuracy Difference Score V3 (Mean) ([2]; 250 mg/day group): 0.01
Ruff 2 & 7 Speed Difference Score V3 (Mean) ([2]; 250 mg/day group): 0.01
Ruff 2 & 7 Total Accuracy T Score V3 (Mean) ([2]; 250 mg/day group): 53.00
Ruff 2 & 7 Total Difference Score V3 (Mean) ([2]; 250 mg/day group): 0.02
Ruff 2 & 7 Total Speed T Score V3 (Mean) ([2]; 250 mg/day group): 54.85
Ruff 2 & 7 Speed Difference Score V3-V1 (Mean) [2, 3]: 0.00
Ruff 2 & 7 Total Accuracy T Score V3-V1 (Mean) [2, 3]: 5.59
Ruff 2 & 7 Total Difference Score V3-V1 (Mean) [2, 3]: 0.00
Ruff 2 & 7 Total Speed T Score V3-V1 (Mean) [2, 3]: 9.11
Ruff 2 & 7 Accuracy Difference Score V1 (Mean) ([2]; 500 mg/day group): 0.02
Ruff 2 & 7 Speed Difference Score V1 (Mean) ([2]; 500 mg/day group): 0.01
Ruff 2 & 7 Total Accuracy T Score V1 (Mean) ([2]; 500 mg/day group): 42.71
Ruff 2 & 7 Total Difference Score V1 (Mean) ([2]; 500 mg/day group): 0.02
Ruff 2 & 7 Total Speed T Score V1 (Mean) ([2]; 500 mg/day group): 44.33
Ruff 2 & 7 Accuracy Difference Score V3 (Mean) ([2]; 500 mg/day group): 0.00
Ruff 2 & 7 Speed Difference Score V3 (Mean) ([2]; 500 mg/day group): 0.02
Ruff 2 & 7 Total Accuracy T Score V3 (Mean) ([2]; 500 mg/day group): 49.88
Ruff 2 & 7 Total Difference Score V3 (Mean) ([2]; 500 mg/day group): 0.02
Ruff 2 & 7 Total Speed T Score V3 (Mean) ([2]; 500 mg/day group): 53.75
Ruff 2 & 7 Accuracy Difference Score V3-V1 (Mean) [2, 4]: -0.02
Ruff 2 & 7 Speed Difference Score V3-V1 (Mean) [2, 4]: 0.01
Ruff 2 & 7 Total Accuracy T Score V3-V1 (Mean) [2, 4]: 7.17
Ruff 2 & 7 Total Difference Score V3-V1 (Mean) [2, 4]: 0.01
Ruff 2 & 7 Total Speed T Score V3-V1 (Mean) [2, 4]: 9.42

From patent US20230181614A1, “ADMINISTRATION OF CITICOLINE TO IMPROVE COGNITIVE PERFORMANCE, ATTENTIONAL PERFORMANCE, AND MOTOR FUNCTION” (KYOWA HAKKO BIO CO., LTD., priority 2014, published 2023)
